What was measured:
[1] = tested on: 4T1 (mouse mammary carcinoma) cells; experiment: Colony formation assay, 4T1; assay type: cell-based; details: one week following treatment
From the text: Desethylamiodarone (DEA) is the main metabolite of the widely used anti-arrhythmic drug amiodarone. DEA also has antiarrhythmic activity in clinical relevant concentration. […] (27, 28, 29, 30) DEA accumulates rapidly in the lungs. […] Here, we checked whether Desethylamiodarone can affect invasion, migration of cancer cells. First of all, we initially checked whether desethylamiodarone has effect on the viability of T24 (human urinary bladder carcinoma), B16F10 (mice melanoma), 4T1 (mouse mammary carcinoma) cells using MTT assay. As shown in FIG. 1-3 Desethylamiodarone had significant cytotoxic activity in very low concentrations. To assess the recovery ability of cells that survived treatment, long-term (7 days) colony formation assay was performed.
Cells were trypsinized and plated in triplicate into 6-well plates at 500 cells/well. Cells were treated with different concentration of Dea. After 7 days of incubation, cells were washed and stained with Coomassie-blue, and the colonies containing more than 50 cells were counted. The number of colonies were determined and normalized to the number of colonies in controls.

[2] = tested on: GSK-3β; experiment: Western blot of GSK-3β phosphorylation; assay type: cell-based, human; details: 5-10-15 μM, 6 hours; T24, B16F10 cell lines
Experimental: (§1) 10^6 cells were seeded into regular plates and treated as for the cell viability assay. Cells were harvested at intervals in a chilled lysis buffer containing 0.5 mM sodium-metavanadate, 1 mM ethylenediaminetetraacetic acid (EDTA) and protease inhibitor cocktail in phosphate-buffered saline (PBS). Probes were boiled and subjected to 10% sodium dodecyl sulphate polyacrylamide gel electrophoresis then transferred to nitrocellulose membranes. The membranes were blocked in 5% low fat milk for 1.5 h at room temperature then exposed to primary antibodies at 4° C. overnight in blocking solution. Appropriate horseradish peroxidase-conjugated secondary antibodies were used at a 1:5000 dilution (anti-mouse and anti-rabbit IgGs; Sigma-Aldrich, Steinheim, Germany) and visualized by enhanced chemiluminescence (Amersham Biosciences, Piscataway, N.J., USA). All experiments were repeated 3 times.
(§2) To determine the downstream consequences of DEA treatment, we examined the phosphorylation status of AKT (protein kinase B), GSK-3β and p42/44 mitogen-activated protein kinase (MAPK) (ERK1/2) by immunoblotting in T24 (human urinary bladder carcinoma), B16F10 (mice melanoma) cell lines. Cells were cultured in the presence of 5-10-15 μM DEA for 6 hours. The cells were prepared and western blot analysis was carried out to perform both phosphorylated and non-phosphorylated forms of the previously listed proteins. […]

[3] = tested on: HeLa (human cervix adenocarcinoma) cells; experiment: MTT cell viability assay, HeLa; assay type: cell-based; details: increasing concentrations, 24 and 48 h
Experimental: (§3) The cells were seeded into 96-well plates at a starting density of 10^4 cells per well and cultured overnight before DEA was added to the medium for 24 h and 48 h. The medium was changed to a fresh one containing 0.5% of 3-[4,5-dimethylthiazol-2-yl]-2,5-diphenyl-tetrazolium bromide (MTT+) for an additional 3 hours, then the MTT+ reaction was terminated by adding HCl to 10 mM final concentration. The amount of blue formazan dye formed from MTT+ was proportional to the number of live cells, and was determined with an Anthos Labtech 2010 ELISA reader at 550 nm. All experiments were run in at least 4 replicates and repeated 3 times.
The effect of desethylamiodarone was measured in T24 (human urinary bladder carcinoma), A549 (human lung adenocarcinoma epithelial), B16F10 (mice melanoma), HeLa (human cervix adenocarcinoma), 4T1 (mouse mammary carcinoma) cell lines. Cells were treated with increasing concentrations of desethylamiodarone for 24 and 48 h. Cell growth was assessed by measuring metabolic activity, which reflects viability in the MTT-test in the course of 24 h, 48 h of continued exposure to desethylamiorarone. The untreated cells served as negative controls. The viability of the cells, was lower in all DEA-treated than in the control group, with the difference being statistically significant.

[4] = tested on: p42/44 mitogen-activated protein kinase (MAPK) (ERK1/2); experiment: Western blot of ERK phosphorylation; assay type: cell-based, human; details: 5-10-15 μM, 6 hours; T24, B16F10 cell lines
Experimental: as §1, §2

[5] = repetitive exposures; cited from earlier work
[6] = tested on: MCF 7 breast cancer cells; experiment: Radiotherapy plus DEA, MTT viability, MCF 7; assay type: cell-based; details: 2Gy, 24, 48 and 72 hours, increasing DEA
Experimental: as §3
MCF 7 cells were exposed to 2Gy irradiation for 24, 48 and 72 hours in presence or absence of increasing concentration of DEA. Viability of the cells was detected by the MTT method. Untreated cells served as controls.

[7] = tested on: mitochondrial permeability transition; details: applicants' previous published results; cited from earlier work
[8] = tested on: DU-145 prostate cancer cell line; experiment: Cisplatin sensitivity of DU-145 cells with DEA (MTT); assay type: cell-based; details: increasing cisplatin, 48 hours, presence or absence of 10 μM DEA
Experimental: as §3
DU-145 cells were exposed to increasing concentrations of cisplatin 48 hours in presence or absence of 10 μM DEA. Viability of the cells was detected by the MTT method. Untreated cells served as controls.

[9] = tested on: B16F10 mice melanoma cell line; experiment: Colony formation assay, B16F10; assay type: cell-based; details: one week; 1, 1.5, 2, 2.5 or 3 μM
Experimental: Cells were trypsinized and plated in triplicate into 6-well plates at 500 cells/well. Cells were treated with different concentration of Dea. After 7 days of incubation, cells were washed and stained with Coomassie-blue, and the colonies containing more than 50 cells were counted. The number of colonies were determined and normalized to the number of colonies in controls. To assess the recovery ability of cells that survived treatment, long-term (7 days) colony formation assay was performed. […] B16F10 cells were incubated with the indicated concentrations of desethylamiodarone (1, 1.5, 2, 2.5 or 3 μM for one week and cell colonies were fixed, stained and counted. (A-B) Data are expressed as the mean±SD of ≧3 experiments; a p<0.01 is considered statistically significant. The data shown on FIG. 6 provide evidence that DEA can be useful to treat melanoma.

CCCCc1oc2ccccc2c1C(=O)c1cc(I)c(OCCNCC)c(I)c1 [DEA, (2-butyl-3-benzofuranyl)[4-[2-(ethylamino)ethoxy]-3,5-diiodophenyl]-methanone]
Colony formation, 4T1 [1]: significant decrease in the number and the size of colonies | GSK-3β phosphorylation [2]: decreased the phosphorylation of GSK-3β | Viability of HeLa cells (MTT) [3]: significantly inhibited the viability | ERK phosphorylation [4]: a decrease in its phosphorylation | Drug accumulation in cell cultures [5]: always higher than that of AM | Radiosensitization, viability of MCF 7 (MTT) [6]: sensitize MCF 7 breast cancer cells to irradiation | Mitochondrial permeability transition [7]: caused mitochondrial permeability transition | Cisplatin sensitivity of DU-145 cells (MTT) [8]: sensitizes DU-145 prostate cancer cells for cisplatin | Colony formation, B16F10 [9]: significant decrease in the number and the size of colonies
